Data on ten compounds can be found in paper PMC3940197, “Identification of the first small-molecule ligand of the neuronal receptor sortilin and structure determination of the receptor–ligand complex” (Acta Crystallographica Section D: Biological Crystallography, 2014).

Experiment [1] deals with T1, sortilin (Homo sapiens, UniProt Q99523).
T1 construct: The extracellular Vps10p domain of sortilin was overexpressed in HEK293F cells and purified from the medium; made in house; host or cells: HEK293F
T1 sequence (Q99523 78-755 limits assumed): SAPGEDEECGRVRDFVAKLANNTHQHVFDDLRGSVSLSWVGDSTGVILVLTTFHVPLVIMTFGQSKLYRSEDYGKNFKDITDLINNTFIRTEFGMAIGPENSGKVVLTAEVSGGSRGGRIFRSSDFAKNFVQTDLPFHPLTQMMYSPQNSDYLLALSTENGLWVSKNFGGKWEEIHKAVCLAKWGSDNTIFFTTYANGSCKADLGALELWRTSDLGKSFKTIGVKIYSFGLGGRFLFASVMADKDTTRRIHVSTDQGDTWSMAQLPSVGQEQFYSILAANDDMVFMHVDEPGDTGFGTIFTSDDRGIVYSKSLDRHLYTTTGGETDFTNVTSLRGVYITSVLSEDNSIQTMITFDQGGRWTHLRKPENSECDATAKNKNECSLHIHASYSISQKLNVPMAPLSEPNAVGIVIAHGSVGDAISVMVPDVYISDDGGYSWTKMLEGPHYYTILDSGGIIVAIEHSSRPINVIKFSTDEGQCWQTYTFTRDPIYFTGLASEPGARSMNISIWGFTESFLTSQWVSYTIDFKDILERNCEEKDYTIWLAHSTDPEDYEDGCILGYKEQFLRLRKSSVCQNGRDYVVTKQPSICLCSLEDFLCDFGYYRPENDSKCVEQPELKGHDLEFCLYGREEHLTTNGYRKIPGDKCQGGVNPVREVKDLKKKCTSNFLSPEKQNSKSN
As to the kind of experiment: 3H-neurotensin-binding sortilin scintillation proximity assay (SPA). To be noted: for IC50: 150 nM sortilin, 5 nM 3H-neurotensin, averages of at least four determinations, read-out: IC50 (displacement of 3H-neurotensin binding to sortilin); for activity in SPA assay (in words): structure-activity relationship relative to hit 1a. How it is done: The open reading frame of human sortilin including the endogenous signal peptide to residue 723 was amplified by PCR and cloned into the pCEP-pu vector with XbaI and XhoI. The primers were designed to include a C-terminal factor Xa site followed by a hexahistidine tag. HEK293F cells were transfected with 900 µg plasmid, applying 900 µl FreeStyle MAX reagent (Invitrogen) according to the manufacturer’s instructions, and were grown in 900 ml FreeStyle 293 medium (Invitrogen) in a 3 l Erlenmeyer flask for 7 d. The medium was harvested by centrifugation at 3700g for 15 min, filtered through a 0.40 µm filter and the pH was adjusted by supplementation with Tris–HCl pH 8.0 to a final concentration of 50 mM. A 5 ml Ni–NTA column (GE Healthcare) was equilibrated in buffer A (50 mM Tris–HCl pH 8.0, 150 mM NaCl) and the medium was recirculated over the column overnight. The column was washed with five column volumes of wash buffer (50 mM Tris–HCl pH 8.0, 150 mM NaCl, 10 mM imidazole) and sortilin was eluted with a ten-column-volume imidazole gradient (10–250 mM imidazole). Fractions containing sortilin were pooled and concentrated by […] (Vivaspin 20, 10 kDa cutoff, Sartorius). The sortilin was applied onto a Superdex 200 10/300 GL column (GE Healthcare) equilibrated in buffer A. Fractions containing sortilin were pooled, concentrated to a final concentration of 5 mg ml^−1, flash-frozen in liquid nitrogen and stored at −80°C.
The compound affinity was determined by measuring the displacement of ^3H-neurotensin binding to sortilin using a scintillation proximity assay (SPA). Experiments were performed in assay buffer (50 mM HEPES pH 7.4, 100 mM NaCl, 2.0 mM CaCl2, 0.1% BSA, 0.1% Tween-20) with a total volume of 40 µl. The compound was pre-incubated for 30 min at room temperature with 150 nM sortilin before 5 nM ^3H-neurotensin and Ni-chelate imaging beads (Perkin Elmer) were added. After 6 h, the plate was read on a ViewLux with 360 s exposure time. Unlabelled neurotensin and a DMSO blank were used as positive and negative controls, respectively. Dose-response evaluation of compounds was performed with ten concentrations of 1a–1h and AF40431 (covering concentrations between 2.5 nM and 50 µM). The half-maximal inhibitory concentration (IC50) values were calculated by nonlinear regression using the sigmoid concentration response (variable slope) in XLfit 4 (IDBS, UK). All values reported are the averages of at least four determinations.
Background: In a scintillation proximity assay essentially only radioactivity close to the scintillant gives light.

In the next experiment the target is proNGF (Homo sapiens) (UniProt P01138). To be noted: cited from earlier work.
The target of the next experiment is NTSR1 (Homo sapiens, UniProt P30989). As to the kind of experiment: Competition of NTS binding to NTSR1. As to conditions: data not shown.
Experiment [2] concerns the target T2, sortilin (Homo sapiens, UniProt Q99523).
T2 construct: The extracellular Vps10p domain of sortilin was overexpressed in HEK293F cells and purified from the medium; made in house; host or cells: HEK293F
T2 sequence (Q99523 78-756): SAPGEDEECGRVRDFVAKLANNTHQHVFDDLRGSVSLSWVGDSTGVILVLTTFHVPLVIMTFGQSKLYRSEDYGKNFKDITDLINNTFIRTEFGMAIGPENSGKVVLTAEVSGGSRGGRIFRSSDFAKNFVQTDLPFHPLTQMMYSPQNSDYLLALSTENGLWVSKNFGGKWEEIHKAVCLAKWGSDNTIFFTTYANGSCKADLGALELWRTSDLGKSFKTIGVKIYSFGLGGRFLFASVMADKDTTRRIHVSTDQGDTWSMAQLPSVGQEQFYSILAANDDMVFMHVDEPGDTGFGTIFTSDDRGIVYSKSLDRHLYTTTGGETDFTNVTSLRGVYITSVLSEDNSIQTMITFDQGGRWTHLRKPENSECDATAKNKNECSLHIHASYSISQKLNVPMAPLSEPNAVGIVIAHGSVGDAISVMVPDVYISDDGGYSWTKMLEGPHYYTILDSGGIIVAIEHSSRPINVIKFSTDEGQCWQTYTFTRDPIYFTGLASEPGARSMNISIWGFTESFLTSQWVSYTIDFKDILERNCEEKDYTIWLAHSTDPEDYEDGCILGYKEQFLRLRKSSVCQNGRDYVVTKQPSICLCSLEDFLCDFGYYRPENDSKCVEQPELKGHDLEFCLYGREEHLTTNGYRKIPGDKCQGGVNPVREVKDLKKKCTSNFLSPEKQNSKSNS
As to the kind of experiment: Isothermal titration calorimetry (ITC) of binding to sortilin. As to conditions: 25°C, PBS pH 7.4, 4% DMSO, read-out: dissociation constant (Kd). How it is done:
The open reading frame of human sortilin including the endogenous signal peptide to residue 723 was amplified by PCR and cloned into the pCEP-pu vector with XbaI and XhoI. The primers were designed to include a C-terminal factor Xa site followed by a hexahistidine tag. HEK293F cells were transfected with 900 µg plasmid, applying 900 µl FreeStyle MAX reagent (Invitrogen) according to the manufacturer’s instructions, and were grown in 900 ml FreeStyle 293 medium (Invitrogen) in a 3 l Erlenmeyer flask for 7 d. The medium was harvested by centrifugation at 3700g for 15 min, filtered through a 0.40 µm filter and the pH was adjusted by supplementation with Tris–HCl pH 8.0 to a final concentration of 50 mM. A 5 ml Ni–NTA column (GE Healthcare) was equilibrated in buffer A (50 mM Tris–HCl pH 8.0, 150 mM NaCl) and the medium was recirculated over the column overnight. […]
The binding of AF40431 to sortilin was measured by isothermal titration calorimetry (ITC). […] Heat evolving from dilution was measured by injecting the ligand into PBS supplemented with 4% DMSO. […] Finally, the binding stoichiometry (n), equilibrium dissociation constant (K d), molar enthalpy and entropy changes for the binding processes were determined by analyzing the titration data using Origin software (OriginLab, Northampton, Massachusetts, USA).
A general note: ITC needs no label: the signal is the heat of the interaction.

proNGF (Homo sapiens), sequence (P01138 122-241): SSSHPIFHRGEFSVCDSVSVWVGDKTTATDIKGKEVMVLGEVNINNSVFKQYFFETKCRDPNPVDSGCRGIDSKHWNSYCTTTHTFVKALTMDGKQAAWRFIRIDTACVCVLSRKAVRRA
NTSR1, sequence (P30989 whole entry, species assumed): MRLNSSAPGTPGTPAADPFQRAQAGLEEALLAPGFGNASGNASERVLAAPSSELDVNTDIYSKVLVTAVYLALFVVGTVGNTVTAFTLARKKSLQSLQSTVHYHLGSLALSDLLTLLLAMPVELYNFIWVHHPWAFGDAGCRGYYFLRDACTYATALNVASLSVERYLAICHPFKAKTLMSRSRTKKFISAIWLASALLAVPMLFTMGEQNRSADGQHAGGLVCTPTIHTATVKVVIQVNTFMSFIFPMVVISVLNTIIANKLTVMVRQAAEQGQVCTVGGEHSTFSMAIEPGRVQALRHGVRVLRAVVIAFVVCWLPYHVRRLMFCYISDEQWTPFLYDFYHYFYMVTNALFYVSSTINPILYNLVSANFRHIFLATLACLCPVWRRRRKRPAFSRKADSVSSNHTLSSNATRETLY

Usually IC50 stands for the concentration at which inhibition is half-maximal. Turning to `Cc1cc(=O)oc2c(CNC(Cc3ccccc3)C(=O)O)c(O)ccc12` (stereo not shown) [Compound 1g], on sortilin [1], the IC50 is greater than 50 µM and the “activity in SPA assay (in words)” value was “activity was ablated”.

In the case of `Cc1cc(=O)oc2c(CNC(C(=O)O)C(C)C)c(O)ccc12` (stereo not shown) [Compound 1e], on sortilin [1], the IC50 is greater than 50 µM and the “activity in SPA assay (in words)” value is recorded as “activity was ablated”.

Regarding `Cc1cc(=O)oc2c(CNC(C(=O)O)C3CCCCC3)c(O)ccc12` (stereo not shown) [Compound 1d], on sortilin [1], the IC50 amounted to 1.7 ± 0.3 µM and the “activity in SPA assay (in words)” value is given as “activity was retained”.

As for `CCC(C)C(NCc1c(O)ccc2c(C)cc(=O)oc12)C(=O)O` (stereo not shown) [Compound 1b], at sortilin [1], the IC50 was 6.1 ± 2.7 µM and the “activity in SPA assay (in words)” value is “activity was retained”.

The term Kd denotes a measure of binding affinity in units of concentration. On to Sortilin (from UniProt Q99523), for which the Kd in the experiment with proNGF (Homo sapiens) was 0.00016 µM.

As to `Cc1cc(=O)oc2c(CNC(CC(C)(C)C)C(=O)O)c(O)ccc12` (stereo not shown) [Compound 1c], on sortilin [1], the IC50 was 3.1 ± 1.1 µM and the “activity in SPA assay (in words)” value is given as “activity was retained”.

Consider `Cc1cc(=O)oc2c(CN[C@H](CC(C)C)C(=O)O)c(O)ccc12` [Compound 1h], for which, at sortilin [1], the 50% inhibitory concentration (IC50) was greater than 50 µM and the “activity in SPA assay (in words)” value was “inactive”.

For the compound `Cc1cc(=O)oc2c(CN[C@@H](CC(C)C)C(=O)O)c(O)ccc12` [AF40431], the IC50 at NTSR1 was greater than 50 µM; on sortilin [1], 4.4 ± 0.7 µM. Besides, the Kd on sortilin [2] came to 0.7 µM.

On to `Cc1cc(=O)oc2c(CNC(CC(C)C)C(=O)O)c(O)ccc12` (stereo not shown) [Compound 1a], for which the half-maximal inhibitory concentration (IC50) at sortilin [1] stood at 1.8 µM.

`Cc1cc(=O)oc2c(CNC(C)C(=O)O)c(O)ccc12` (stereo not shown) [Compound 1f]: on sortilin [1], the 50% inhibitory concentration (IC50) was greater than 50 µM and the “activity in SPA assay (in words)” value is recorded as “activity was ablated”.
